Reference: PubChem BioAssay (NCI)
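Test compounds were applied to cells in 96-well plates for 48 hours at 5 doses. At the TGI there is no net growth.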

Key:
Assay in all cases: NCI tumour cell line growth inhibition, 48 h
786-0 renal = tested on: 786-0 renal
A498 renal = tested on: A498 renal
HCT-15 colon = tested on: HCT-15 colon
HOP-62 NSCLC = tested on: HOP-62 NSCLC
HT29 colon = tested on: HT29 colon
K-562 leukemia = tested on: K-562 leukemia
KM12 colon = tested on: KM12 colon
LOX IMVI melanoma = tested on: LOX IMVI melanoma
M14 melanoma = tested on: M14 melanoma
MCF7 breast = tested on: MCF7 breast
NCI-H226 lung = tested on: NCI-H226 lung
NCI-H460 lung = tested on: NCI-H460 lung
NCI/ADR-RES ovarian = tested on: NCI/ADR-RES ovarian
OVCAR-4 ovarian = tested on: OVCAR-4 ovarian
SF-295 CNS = tested on: SF-295 CNS
SK-MEL-2 melanoma = tested on: SK-MEL-2 melanoma
UACC-257 melanoma = tested on: UACC-257 melanoma
T-47D breast = tested on: T-47D breast

SMILES | TGI (786-0 renal) [µM] | TGI (A498 renal) [µM] | TGI (HCT-15 colon) [µM] | TGI (HOP-62 NSCLC) [µM] | TGI (HT29 colon) [µM] | TGI (K-562 leukemia) [µM] | TGI (KM12 colon) [µM] | TGI (LOX IMVI melanoma) [µM] | TGI (M14 melanoma) [µM] | TGI (MCF7 breast) [µM] | TGI (NCI-H226 lung) [µM] | TGI (NCI-H460 lung) [µM] | TGI (NCI/ADR-RES ovarian) [µM] | TGI (OVCAR-4 ovarian) [µM] | TGI (SF-295 CNS) [µM] | TGI (SK-MEL-2 melanoma) [µM] | TGI (UACC-257 melanoma) [µM] | TGI (T-47D breast) [µM]
Cc1ccc(-c2c(C#N)c(-c3ccccc3)n(NS(=O)(=O)c3ccc(C)cc3)c(=O)c2C#N)cc1 | > 100 | > 100 | > 100 | > 100 | > 100 | > 100 | > 100 | > 100 | > 100 | > 100 | > 100 | > 100 | > 100 | > 100 | > 100 | > 100 | > 100 | –
Cc1ccc2c(c1)C(=O)C1(C2)Cc2c(C)cccc2C1=O (centres undefined) | > 100 | > 100 | > 100 | > 100 | > 100 | > 100 | > 100 | > 100 | > 100 | > 100 | > 100 | > 100 | > 100 | > 100 | > 100 | – | > 100 | > 100
CC(=O)C(C(=O)c1ccc(C)cc1)[C@@H]1OC(C)(C)O[C@@H]1[C@H]1COC(C)(C)O1 (some centres undefined) | 21.5 | > 75.7 | 37 | > 58.4 | 20 | > 32 | 65.6 | 21.8 | 35.8 | 15.4 | – | > 88.9 | > 70.9 | > 26.3 | > 100 | > 23.2 | 28.6 | > 49.8
CCOc1cccc(C=Nc2ccccc2SSc2ccccc2N=Cc2cccc(OCC)c2O)c1O | 19.8 | 44 | 12.9 | 30.9 | 28.9 | 27.6 | 19.6 | 14.9 | 19.4 | – | 22.5 | 20.1 | > 100 | 14.3 | 37.6 | 37.7 | 21.2 | 10.7
O=C1C2=Cc3ccccc3CCN2c2ccccc21 | > 31.6 | 25.9 | > 79.5 | > 100 | 23 | 20.5 | > 62 | 38.7 | 26.8 | > 61 | 22 | 60.2 | > 77.9 | > 100 | 98.3 | 67.9 | > 79.9 | –
Cc1c2c(cc3c1C(=O)C(=O)C([C@@H](C)CO)=C3O)C(C)(C)CCC2 | > 100 | 98.9 | > 100 | > 100 | 30.6 | > 100 | 34.2 | > 100 | 67.5 | – | > 100 | – | > 100 | > 100 | > 100 | 47.2 | > 100 | > 100
N=c1c2ccccc2nc2oc3cc([N+](=O)[O-])ccc3n12 | 66.3 | – | > 100 | 45.4 | > 100 | > 100 | > 100 | > 100 | > 100 | > 100 | 30.3 | > 100 | 74 | > 100 | 54.4 | > 100 | > 100 | 20.3
C=CC(C)(C)n1cc(C2=C3OC(=O)C(c4cn(C(C)(C)C=C)c5ccccc45)=C3OC2=O)c2ccccc21 | > 100 | > 100 | > 100 | > 100 | > 100 | > 100 | > 100 | > 100 | > 100 | > 100 | > 100 | > 100 | > 100 | > 100 | > 100 | > 100 | > 100 | –
CCOC(=O)/C(C#N)=C/Nc1c(C)n(C)n(-c2ccccc2)c1=O | > 100 | > 100 | > 100 | – | – | > 100 | > 100 | > 100 | > 100 | > 100 | > 100 | – | > 100 | > 100 | > 100 | > 100 | > 100 | –
O=C(CP(=O)(c1ccccc1)c1ccccc1)c1cccc(C(=O)CP(=O)(c2ccccc2)c2ccccc2)c1 | > 100 | – | > 100 | > 100 | > 100 | > 100 | > 100 | – | > 100 | > 100 | > 100 | > 100 | > 100 | > 100 | 30 | > 100 | > 100 | > 100
COc1ccccc1C[C@@H]1OC2(C=CC(=O)CC2SC(=O)c2ccccc2)O[C@H]1Cc1ccccc1OC (some centres undefined) | 0.973 | 5.67 | 4.75 | 3.03 | 3.14 | 27.3 | 8.4 | 1.9 | 3.26 | 2.36 | – | 7.87 | 4.55 | 3.69 | 4.14 | 3.31 | 3.02 | 5.64
COC(=O)C1=CC2C(=O)c3ccccc3C1(c1ccccc1)N2C1CCCCC1 (centres undefined) | > 100 | > 100 | > 100 | 36.8 | > 100 | > 100 | 32.1 | 52.3 | > 100 | 36.8 | 84.1 | 40.6 | > 100 | 91.6 | 55.3 | 29.1 | 39 | –
C=C(C)C1CC=C(C)C(=O)C1 (centres undefined) | > 100 | – | > 100 | > 100 | > 100 | > 100 | > 100 | > 100 | > 100 | > 100 | > 100 | > 100 | > 100 | > 100 | > 100 | > 100 | > 100 | > 100
O=C(/C=C/c1cccc([N+](=O)[O-])c1)N1CCN(CCOC(c2ccccc2)c2ccccc2)CC1 | > 100 | > 100 | > 100 | > 100 | 71.5 | 50.7 | 87.8 | 62.1 | > 100 | > 100 | – | > 100 | > 100 | > 100 | > 100 | – | 89.2 | > 100
CCCCNC(=S)Nc1nc(C(=O)NNC(=S)NCC)cs1 | > 100 | > 100 | > 100 | > 100 | > 100 | – | > 100 | > 100 | > 100 | > 100 | – | – | > 100 | > 100 | > 100 | > 100 | > 100 | 71.3
N=C1C(=N)c2ccccc2-c2ccccc21.[Cl-].[Ru+2].c1cnc2c(c1)ccc1cccnc12.c1cnc2c(c1)ccc1cccnc12 | > 100 | – | > 100 | > 100 | > 100 | 78.9 | > 100 | 75.1 | 43.3 | – | – | > 100 | – | 77.7 | > 100 | 91.4 | 46.6 | –
CCN(CCCl)c1cc(CN(C)C)cc(NC(=O)c2ccc(C(=O)Nc3cc(CN(C)C)cc(N(CC)CCCl)c3)cc2)c1 | 1.3 | – | 29.5 | 0.966 | 3.55 | 1.6 | 1.36 | 0.712 | 0.926 | 0.241 | 0.251 | 1.54 | > 100 | 9.46 | 1.21 | 3.23 | 1.32 | 15.4
CCCCCCCCCCCCCCCCP(=O)(O)OCC(N)C(=O)O (centres undefined) | > 100 | 52.2 | > 100 | 47.9 | > 100 | > 100 | 43.7 | 40.1 | > 100 | – | > 100 | 64.9 | > 100 | > 100 | 44.8 | 78.7 | > 100 | > 100
O=C(O)c1cccc(Nc2c(C(=O)O)cccc2[N+](=O)[O-])c1 | > 100 | > 100 | > 100 | > 100 | > 100 | > 100 | > 100 | > 100 | > 100 | > 100 | – | > 100 | > 100 | > 100 | > 100 | > 100 | > 100 | > 100
CC(=O)O[C@H]1C(=O)[C@@]2(C)[C@H]([C@H](OC(=O)c3ccccc3)[C@]3(O)C[C@H](OC(=O)[C@H](O)[C@@H](NC(=O)c4ccc(N)cc4)c4ccccc4)C(C)=C1C3(C)C)[C@]1(OC(C)=O)CO[C@@H]1C[C@@H]2O | > 50 | > 50 | > 50 | > 50 | – | 0.26 | > 50 | > 50 | > 50 | > 50 | 0.00862 | > 50 | > 50 | > 50 | > 50 | – | – | > 50
C1C2CC3CC1CC(c1nn4c(C56CC7CC(CC(C7)C5)C6)nnc4s1)(C2)C3 | > 100 | > 100 | > 100 | > 100 | > 100 | > 100 | > 100 | > 100 | > 100 | – | > 100 | > 100 | > 100 | > 100 | > 100 | > 100 | – | > 100
CN(CCC(=O)N1CC(CCl)c2ccc([N+](=O)[O-])cc21)CCC(=O)N1CC(CCl)c2ccc([N+](=O)[O-])cc21 (centres undefined) | 25 | 35.3 | 25.9 | > 100 | 24 | 47.7 | 18.3 | 21.7 | 21.7 | 23.5 | > 100 | > 100 | – | > 100 | 39.5 | 26 | 21.6 | > 100
OCC1OC(NC(=S)NCCC(F)(F)C(F)(F)C(F)(F)C(F)(F)C(F)(F)C(F)(F)F)C(O)C(O)C1O (centres undefined) | > 100 | 56.6 | > 100 | > 100 | > 100 | > 100 | > 100 | > 100 | > 100 | > 100 | – | > 100 | > 100 | > 100 | > 100 | > 100 | > 100 | > 100
CC12CCCC(C(=O)O)(C1)[C@H](C(C)(C)C(=O)O)CC2 (some centres undefined) | > 100 | – | > 100 | > 100 | > 100 | > 100 | > 100 | > 100 | > 100 | > 100 | > 100 | > 100 | > 100 | > 100 | > 100 | > 100 | > 100 | > 100
COc1cc2c(cc1OCCCNC(=O)c1cc3ccccc3[nH]1)N=C[C@@H]1CCCN1C2=O | 41.4 | 0.257 | > 26.9 | 21.6 | > 34.3 | > 100 | 1.84 | > 100 | 1.15 | > 48.1 | 2.96 | > 100 | 9.99 | 11.7 | > 31.9 | 0.418 | > 66.4 | –
CC(=O)OCC(OC(C)=O)C1C[C@H]2O[C@@H]3[C@H](C[C@H]2O1)O[C@@]1(C[C@@H]3C)C[C@H](C)[C@@H]2O[C@]3(C[C@@H]2O1)C[C@H]1O[C@H]2[C@H](C)[C@H]4OC(=O)C[C@H]5CC[C@@H]6OC7[C@H]8O[C@]9(CC[C@H]%10CC(=O)[C@H](CC[C@H]%11C[C@@H](C)C(=O)C(C[C@@H]4O[C@H]2C[C@H]1O3)O%11)O%10)CC8O[C@@H]7[C@@H](O9)[C@H]6O5 (some centres undefined) | > 1 | > 1 | > 0.219 | > 1 | – | > 1 | > 0.2 | > 0.859 | > 1 | > 1 | 0.0731 | > 1 | > 0.566 | > 1 | – | > 1 | – | –
